# According to patent US8192962B2, “Processes for detecting toxic substances” (Daikin Industries, Ltd., priority 2001, dated 2012):
# Test system: Transport facilitation protein genes
# Assay: DNA chip mRNA expression in yeast, transport facilitation protein genes (Table 5)
# Assay type: cell-based, Saccharomyces cerevisiae S288C
# How it was run: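 Chemical exposure: 2 h, log-phase S. cerevisiae S288C, YPD, 25° C., dose set to inhibit growth without death. Profiling: mRNA labeled by reverse transcription with Cy3- or Cy5-dUTP, hybridized to whole-genome array. Output: fluorescence ratio against untreated culture.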
smiles,measurement,setting,value
"Cl[C@H]1[C@H](Cl)[C@@H](Cl)[C@@H](Cl)[C@H](Cl)[C@H]1Cl [(7), γ-hexachlorocyclohexane]",The level of expressed mRNA in the presence of chemical substance/The level of expressed mRNA in the absence of chemical substance,yeast gene YBL030C,0.9
same,The level of expressed mRNA in the presence of chemical substance/The level of expressed mRNA in the absence of chemical substance,yeast gene YBL099W,0.9
same,The level of expressed mRNA in the presence of chemical substance/The level of expressed mRNA in the absence of chemical substance,yeast gene YBR052C,3.0
same,The level of expressed mRNA in the presence of chemical substance/The level of expressed mRNA in the absence of chemical substance,yeast gene YBR127C,0.9
same,The level of expressed mRNA in the presence of chemical substance/The level of expressed mRNA in the absence of chemical substance,yeast gene YBR132C,1.1
same,The level of expressed mRNA in the presence of chemical substance/The level of expressed mRNA in the absence of chemical substance,yeast gene YBR207W,4.3
same,The level of expressed mRNA in the presence of chemical substance/The level of expressed mRNA in the absence of chemical substance,yeast gene YBR293W,0.9
same,The level of expressed mRNA in the presence of chemical substance/The level of expressed mRNA in the absence of chemical substance,yeast gene YBR294W,1.1
same,The level of expressed mRNA in the presence of chemical substance/The level of expressed mRNA in the absence of chemical substance,yeast gene YBR295W,1.6
same,The level of expressed mRNA in the presence of chemical substance/The level of expressed mRNA in the absence of chemical substance,yeast gene YBR298C,1.7
same,The level of expressed mRNA in the presence of chemical substance/The level of expressed mRNA in the absence of chemical substance,yeast gene YCL025C,0.7
same,The level of expressed mRNA in the presence of chemical substance/The level of expressed mRNA in the absence of chemical substance,yeast gene YCL038C,1.5
same,The level of expressed mRNA in the presence of chemical substance/The level of expressed mRNA in the absence of chemical substance,yeast gene YCR024C-A,0.8
same,The level of expressed mRNA in the presence of chemical substance/The level of expressed mRNA in the absence of chemical substance,yeast gene YCR037C,1.0
same,The level of expressed mRNA in the presence of chemical substance/The level of expressed mRNA in the absence of chemical substance,yeast gene YCR098C,1.2
same,The level of expressed mRNA in the presence of chemical substance/The level of expressed mRNA in the absence of chemical substance,yeast gene YDL128W,0.9
same,The level of expressed mRNA in the presence of chemical substance/The level of expressed mRNA in the absence of chemical substance,yeast gene YDL198C,1.0
same,The level of expressed mRNA in the presence of chemical substance/The level of expressed mRNA in the absence of chemical substance,yeast gene YDL210W,0.8
same,The level of expressed mRNA in the presence of chemical substance/The level of expressed mRNA in the absence of chemical substance,yeast gene YDL245C,1.2
same,The level of expressed mRNA in the presence of chemical substance/The level of expressed mRNA in the absence of chemical substance,yeast gene YDR038C,0.7
same,The level of expressed mRNA in the presence of chemical substance/The level of expressed mRNA in the absence of chemical substance,yeast gene YDR039C,0.8
same,The level of expressed mRNA in the presence of chemical substance/The level of expressed mRNA in the absence of chemical substance,yeast gene YDR086C,2.0
same,The level of expressed mRNA in the presence of chemical substance/The level of expressed mRNA in the absence of chemical substance,yeast gene YDR270W,1.7
same,The level of expressed mRNA in the presence of chemical substance/The level of expressed mRNA in the absence of chemical substance,yeast gene YDR298C,1.0
same,The level of expressed mRNA in the presence of chemical substance/The level of expressed mRNA in the absence of chemical substance,yeast gene YDR342C,0.8
same,The level of expressed mRNA in the presence of chemical substance/The level of expressed mRNA in the absence of chemical substance,yeast gene YDR343C,0.7
same,The level of expressed mRNA in the presence of chemical substance/The level of expressed mRNA in the absence of chemical substance,yeast gene YDR345C,1.1
same,The level of expressed mRNA in the presence of chemical substance/The level of expressed mRNA in the absence of chemical substance,yeast gene YDR387C,1.3
same,The level of expressed mRNA in the presence of chemical substance/The level of expressed mRNA in the absence of chemical substance,yeast gene YDR497C,0.5
same,The level of expressed mRNA in the presence of chemical substance/The level of expressed mRNA in the absence of chemical substance,yeast gene YEL027W,0.8
same,The level of expressed mRNA in the presence of chemical substance/The level of expressed mRNA in the absence of chemical substance,yeast gene YEL063C,0.7
same,The level of expressed mRNA in the presence of chemical substance/The level of expressed mRNA in the absence of chemical substance,yeast gene YEL065W,4.3
same,The level of expressed mRNA in the presence of chemical substance/The level of expressed mRNA in the absence of chemical substance,yeast gene YER053C,2.8
same,The level of expressed mRNA in the presence of chemical substance/The level of expressed mRNA in the absence of chemical substance,yeast gene YFL011W,0.8
same,The level of expressed mRNA in the presence of chemical substance/The level of expressed mRNA in the absence of chemical substance,yeast gene YFL041W,3.4
same,The level of expressed mRNA in the presence of chemical substance/The level of expressed mRNA in the absence of chemical substance,yeast gene YFL050C,0.8
same,The level of expressed mRNA in the presence of chemical substance/The level of expressed mRNA in the absence of chemical substance,yeast gene YFL054C,1.1
same,The level of expressed mRNA in the presence of chemical substance/The level of expressed mRNA in the absence of chemical substance,yeast gene YGL006W,1.3
same,The level of expressed mRNA in the presence of chemical substance/The level of expressed mRNA in the absence of chemical substance,yeast gene YGL008C,1.4
same,The level of expressed mRNA in the presence of chemical substance/The level of expressed mRNA in the absence of chemical substance,yeast gene YGL104C,1.2
same,The level of expressed mRNA in the presence of chemical substance/The level of expressed mRNA in the absence of chemical substance,yeast gene YGL167C,1.2
same,The level of expressed mRNA in the presence of chemical substance/The level of expressed mRNA in the absence of chemical substance,yeast gene YGL255W,1.0
same,The level of expressed mRNA in the presence of chemical substance/The level of expressed mRNA in the absence of chemical substance,yeast gene YGR055W,0.6
same,The level of expressed mRNA in the presence of chemical substance/The level of expressed mRNA in the absence of chemical substance,yeast gene YGR065C,2.4
same,The level of expressed mRNA in the presence of chemical substance/The level of expressed mRNA in the absence of chemical substance,yeast gene YGR082W,0.9
same,The level of expressed mRNA in the presence of chemical substance/The level of expressed mRNA in the absence of chemical substance,yeast gene YGR096W,0.9
same,The level of expressed mRNA in the presence of chemical substance/The level of expressed mRNA in the absence of chemical substance,yeast gene YGR138C,0.7
same,The level of expressed mRNA in the presence of chemical substance/The level of expressed mRNA in the absence of chemical substance,yeast gene YGR191W,0.7
same,The level of expressed mRNA in the presence of chemical substance/The level of expressed mRNA in the absence of chemical substance,yeast gene YGR197C,1.3
same,The level of expressed mRNA in the presence of chemical substance/The level of expressed mRNA in the absence of chemical substance,yeast gene YGR224W,0.4
